{"source": "patent US20250122218A1", "about": "“MODULATORS OF CYSTIC FIBROSIS TRANSMEMBRANE CONDUCTANCE REGULATOR” (Vertex Pharmaceuticals Incorporated, priority 2022, published 2025)"}
{"biological_target": "T1, CFTR in F508del/MF-HBE cells (Homo sapiens, UniProt P13569, DEL508-508)", "T1 construct": "human bronchial epithelial (HBE) cells derived from CF subjects heterozygous for F508del and a minimal function CFTR mutation; endogenous in cells; host or cells: primary human bronchial epithelial cells from CF subjects (F508del/MF-HBE)", "T1 sequence (P13569 with tags, fused parts or gaps DEL508-508)": "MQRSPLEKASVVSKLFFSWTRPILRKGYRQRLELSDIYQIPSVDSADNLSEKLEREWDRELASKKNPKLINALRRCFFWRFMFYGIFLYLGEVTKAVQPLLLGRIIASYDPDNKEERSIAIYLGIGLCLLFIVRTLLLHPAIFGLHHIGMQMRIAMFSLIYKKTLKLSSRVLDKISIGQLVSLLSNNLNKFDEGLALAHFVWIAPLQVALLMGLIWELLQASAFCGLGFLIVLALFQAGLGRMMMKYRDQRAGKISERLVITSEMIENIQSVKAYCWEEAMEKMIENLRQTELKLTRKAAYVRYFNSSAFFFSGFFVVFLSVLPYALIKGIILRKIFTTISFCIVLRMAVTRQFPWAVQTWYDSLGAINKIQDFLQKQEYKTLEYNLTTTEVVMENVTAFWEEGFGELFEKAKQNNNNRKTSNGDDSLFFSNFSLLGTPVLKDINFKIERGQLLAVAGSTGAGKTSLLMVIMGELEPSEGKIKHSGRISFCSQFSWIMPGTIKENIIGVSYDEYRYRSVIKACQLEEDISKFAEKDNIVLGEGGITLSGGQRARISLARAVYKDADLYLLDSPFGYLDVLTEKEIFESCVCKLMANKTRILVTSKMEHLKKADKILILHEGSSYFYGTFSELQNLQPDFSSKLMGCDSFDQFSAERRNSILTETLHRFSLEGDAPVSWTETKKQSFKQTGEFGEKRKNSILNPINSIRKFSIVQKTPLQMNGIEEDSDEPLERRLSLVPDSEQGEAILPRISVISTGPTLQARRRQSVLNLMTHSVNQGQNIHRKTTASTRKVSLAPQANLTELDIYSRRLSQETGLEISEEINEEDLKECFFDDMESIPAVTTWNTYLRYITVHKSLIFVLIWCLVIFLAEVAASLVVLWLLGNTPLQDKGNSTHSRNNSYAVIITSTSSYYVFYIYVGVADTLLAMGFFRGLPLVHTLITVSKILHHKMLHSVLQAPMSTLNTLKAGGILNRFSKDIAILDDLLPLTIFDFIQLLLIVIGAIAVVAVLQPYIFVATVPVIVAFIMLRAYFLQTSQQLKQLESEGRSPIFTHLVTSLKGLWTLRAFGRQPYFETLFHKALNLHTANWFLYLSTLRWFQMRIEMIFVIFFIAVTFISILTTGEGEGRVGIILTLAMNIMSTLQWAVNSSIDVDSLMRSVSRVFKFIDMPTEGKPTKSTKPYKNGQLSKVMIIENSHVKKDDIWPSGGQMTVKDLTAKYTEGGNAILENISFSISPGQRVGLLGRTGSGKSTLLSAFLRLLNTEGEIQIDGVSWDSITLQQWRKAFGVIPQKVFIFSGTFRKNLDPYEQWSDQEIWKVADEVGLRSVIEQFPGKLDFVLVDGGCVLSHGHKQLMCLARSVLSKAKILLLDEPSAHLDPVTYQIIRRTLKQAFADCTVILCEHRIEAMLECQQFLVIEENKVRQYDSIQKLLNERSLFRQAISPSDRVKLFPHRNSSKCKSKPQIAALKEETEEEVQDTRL", "assay": "Ussing chamber assay of CFTR-mediated short-circuit currents (identification of potentiator compounds)", "assay_type": "cell-based", "conditions": "potentiator incubated 18-24 hours at 37° C. in combination with 10 μM corrector, in the presence of 20% human serum, CFTR-mediated ISC", "method_in_brief": "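F508del/MF-HBE cultures were preincubated 18-24 h at 37° C with potentiator plus 10 μM of a fixed corrector compound in 20% human serum; compounds were kept present during measurement. ISC was recorded under voltage clamp (0 mV, 37° C, amiloride apical) and taken as the 20 μM forskolin peak minus the current after inhibitor cocktail.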", "units": {"EC50": "nM"}}
{"compound": "CN1CCCCC(O)(C(F)(F)F)C2=NN=C(O2)c2nc(c(C(F)(F)F)cc2N)CC1=O", "note": "(stereo not drawn) [Compound 53, 17-amino-6-hydroxy-11-methyl-6,15-bis(trifluoromethyl)-19-oxa-3,4,11,18-tetrazatricyclo[12.3.1.12,5]nonadeca-1(18),2,4,14,16-pentaen-12-one]", "EC50": "> 1000"}
{"compound": "Nc1cc(C(F)(F)F)c2nc1-c1nnc(o1)C(O)(C(F)(F)F)CCCCCCC1=NN=C2O1", "note": "(single isomer, unassigned) [Compound 33, 20-amino-6,18-bis(trifluoromethyl)-22,23-dioxa-3,4,14,15,21-pentaazatetracyclo[15.3.1.12,5.113,16]tricosa-1(21),2,4,13,15,17,19-heptaen-6-ol]", "EC50": "> 1000"}
{"compound": "Nc1cc(C(F)(F)F)c2nc1-c1nnc(o1)[C@@](O)(C(F)(F)F)CCCCCN(Cc1cccc(C(F)F)c1)C2=O", "note": "[Compound 241, (6R)-17-amino-12-[[3-(difluoromethyl)phenyl]methyl]-6-hydroxy-6,15-bis(trifluoromethyl)-19-oxa-3,4,12,18-tetrazatricyclo [12.3.1.12,5] nonadeca-1(18),2,4,14,16-pentaen-13-one]", "EC50": "< 500"}
{"compound": "Nc1cc(C(F)(F)F)c2nc1-c1nnc(o1)[C@@](O)(C(F)(F)F)CCCCCN(Cc1cccc(OC(F)(F)F)c1)C2=O", "note": "[Compound 142, (6R)-17-amino-6-hydroxy-12-[[3-(trifluoromethoxy)phenyl]methyl]-6,15-bis (trifluoromethyl)-19-oxa-3,4,12,18-tetrazatricyclo [12.3.1.12,5] nonadeca-1(18),2,4,14,1 6-pentaen-13-one]", "EC50": "< 500"}
{"compound": "Nc1cc(C(F)(F)F)c2nc1-c1nnc(o1)[C@@](O)(C(F)(F)F)CCCCCN(Cc1ccc(Cl)cc1)C2=O", "note": "[Compound 144, (6R)-17-amino-12-[(4-chlorophenyl)methyl]-6-hydroxy-6,15-bis (trifluoromethyl)-19-oxa-3,4,12,18-tetrazatricyclo [12.3.1.12,5] nonadeca-1(18),2,4,14,1 6-pentaen-13-one]", "EC50": "< 500"}
{"compound": "CCC(C)(C)N1CCCCC[C@](O)(C(F)(F)F)C2=NN=C(O2)c2nc(c(C(F)(F)F)cc2N)C1=O", "note": "[Compound 90, (6R)-17-Amino-12-(1,1-dimethylpropyl)-6-hydroxy-6,15-bis(trifluoromethyl)-19-oxa-3,4,12,18-tetrazatricyclo [12.3.1.12,5] nonadeca-1(18),2,4,14,1 6-pentaen-13-one]", "EC50": "< 500"}
{"compound": "COc1ccccc1CN1CCCCC[C@](O)(C(F)(F)F)C2=NN=C(O2)c2nc(c(C(F)(F)F)cc2N)C1=O", "note": "[Compound 155, (6R)-17-amino-6-hydroxy-12-[(2-methoxyphenyl)methyl]-6,15-bis (trifluoromethyl)-19-oxa-3,4,12,18-tetrazatricyclo [12.3.1.12,5] nonadeca-1(18),2,4,14,1 6-pentaen-13-one]", "EC50": "< 500"}
{"compound": "Nc1cc(C(F)(F)F)c2nc1-c1nnc(o1)[C@@](O)(C(F)(F)F)CCCCCN(Cc1ccc(C3(C(F)(F)F)CC3)cn1)C2=O", "note": "[Compound 214, (6R)-17-amino-6-hydroxy-6,15-bis(trifluoromethyl)-12-[[5-[1-(trifluoromethyl)cyclopropyl]-2-pyridyl]methyl]-19-oxa-3,4,12,18-tetrazatricyclo [12.3.1.12,5] nonadeca-1(18),2,4,14,16-pentaen-13-one]", "EC50": "< 500"}
{"compound": "Nc1cc(C(F)(F)F)c2nc1-c1nnc(o1)[C@@](O)(C(F)(F)F)CCCCCN(CC1C3CCCCC31)C2=O", "note": "(stereo partly drawn) [Compound 246, (6R)-17-amino-6-hydroxy-12-(norcaran-7-ylmethyl)-6,15-bis(trifluoromethyl)-19-oxa-3,4,12,18-tetrazatricyclo [12.3.1.12,5] nonadeca-1(18),2,4,14,16-pentaen-13-one]", "EC50": "< 500"}
{"compound": "COc1cc(F)cc(CN2CCCCC[C@](O)(C(F)(F)F)C3=NN=C(O3)c3nc(c(C(F)(F)F)cc3N)C2=O)c1", "note": "[Compound 176, (6R)-17-amino-12-[(3-fluoro-5-methoxy-phenyl)methyl]-6-hydroxy-6,5-bis (trifluoromethyl)-19-oxa-3,4,12,18-tetrazatricyclo [12.3.1.12,5] nonadeca-1(18),2,4,14,1 6-pentaen-13-one]", "EC50": "< 500"}
{"compound": "Nc1cc(C(F)(F)F)c2nc1-c1nnc(o1)C(O)(C(F)(F)F)c1cc(ccc1F)CCCCC2=O", "note": "(single isomer, unassigned) [Compound 57, 20-amino-8-fluoro-6-hydroxy-6,18-bis(trifluoromethyl)-23-oxa-3,4,21-triazatetracyclo[15.3.1.12,5.17,11]tricosa-1(21),2,4,7(22),8,10,17,19-octaen-16-one]", "EC50": "< 500"}
{"compound": "COc1ccc(CN2CCCCC[C@](O)(C(F)(F)F)C3=NN=C(O3)c3nc(c(C(F)(F)F)cc3N)C2=O)cc1", "note": "[Compound 76, (6R)-17-Amino-6-hydroxy-12-[(4-methoxyphenyl)methyl]-6,15-bis (trifluoromethyl)-19-oxa-3,4,12,18-tetrazatricyclo [12.3.1.12,5] nonadeca-1(18),2,4,14,16-pentaen-13-one]", "EC50": "< 500"}
{"compound": "Nc1cc(C(F)(F)F)c2nc1-c1nnc(o1)[C@@](O)(C(F)(F)F)CCCCCN(CC1CCOCC1)C2=O", "note": "[Compound 132, (6R)-17-amino-6-hydroxy-12-(tetrahydropyran-4-ylmethyl)-6,15-bis (trifluoromethyl)-19-oxa-3,4,12,18-tetrazatricyclo [12.3.1.12,5] nonadeca-1(18),2,4,14,1 6-pentaen-13-one]", "EC50": "< 500"}
{"compound": "COc1cc(OC(F)(F)F)ccc1CN1CCCCC[C@](O)(C(F)(F)F)C2=NN=C(O2)c2nc(c(C(F)(F)F)cc2N)C1=O", "note": "[Compound 158, (6R)-17-amino-6-hydroxy-12-[[2-methoxy-4-(trifluoromethoxy)phenyl]methyl]-6,15-bis(trifluoromethyl)-19-oxa-3,4,12,18-tetrazatricyclo [12.3.1.12,5] nonadeca-1(18),2,4,14,1 6-pentaen-13-one]", "EC50": "< 500"}
{"compound": "Cn1cc2c(n1)-c1nc(c(N)cc1C(F)(F)F)-c1nnc(o1)C(O)(C(F)(F)F)CCCCC2", "note": "(stereo not drawn) [Compound 24, 20-Amino-14-methyl-6,18-bis(trifluoromethyl)-22-oxa-3,4,14,15,21-pentaazatetracyclo[15.3.1.12,5.012,16]docosa-1(21),2,4,12,15,17,19-heptaen-6-ol]", "EC50": "> 1000"}
{"compound": "C[C@@H](c1ccc(F)cc1)N1CCCCC[C@](O)(C(F)(F)F)C2=NN=C(O2)c2nc(c(C(F)(F)F)cc2N)C1=O", "note": "[Compound 104, (6R)-17-Amino-12-[(1S)-1-(4-fluorophenyl)ethyl]-6-hydroxy-6,15-bis (trifluoromethyl)-19-oxa-3,4,12,18-tetrazatricyclo [12.3.1.12,5] nonadeca-1(18),2,4,14,1 6-pentaen-13-one]", "EC50": "< 500"}
{"compound": "Nc1cc(C(F)(F)F)c2nc1-c1nnc(o1)[C@@](O)(C(F)(F)F)CCCCCN(Cc1ccc(F)cc1F)C2=O", "note": "[Compound 145, (6R)-17-amino-12-[(2,4-difluorophenyl)methyl]-6-hydroxy-6,15-bis (trifluoromethyl)-19-oxa-3,4,12,18-tetrazatricyclo [12.3.1.12,5] nonadeca-1(18),2,4,14,1 6-pentaen-13-one]", "EC50": "< 500"}
{"compound": "Nc1cc(C(F)(F)F)c2nc1-c1nnc(o1)[C@@](O)(C(F)(F)F)CCCCCN(C1CS(=O)(=O)C1)C2=O", "note": "[Compound 103, (6R)-17-Amino-12-(1,1-dioxothietan-3-yl)-6-hydroxy-6,15-bis (trifluoromethyl)-19-oxa-3,4,12,18-tetrazatricyclo [12.3.1.12,5] nonadeca-1(18),2,4,14,1 6-pentaen-13-one]", "EC50": "> 1000"}
